Literature values, collected in US20070275941A1, “SALT SENSITIVITY AND PREVENTION OF HYPERTENSION WITH DROSPIRENONE” (priority 2006, published 2007).

Test system: postmenopausal women with hypertension

For C[C@]12CCC(=O)C=C1[C@@H]1C[C@@H]1[C@H]1[C@@H]3[C@@H]4C[C@@H]4[C@@]4(CCC(=O)O4)[C@@]3(C)CC[C@@H]12 [drospirenone], the potassium sparing effect (clinical studies) is listed as “demonstrated a potassium sparing effect” and the blood pressure reduction (postmenopausal women with hypertension, alone or in combination with other agents) is listed as “consistently and substantially reduce blood pressure”.
